Where a name gives a salt, the structure may show the parent alone. Where a SMILES comes first, the peptide text is derived from it.
Assays:
γδ T cells [1] = assay: In vitro BrHPP sensitivity test: 8 day culture of peripheral lymphocytes from CML patients undergoing Gleevec therapy, flow cytometry; type: cell-based, human
Procedure: The study intends to test the sensitivity of γ962 T cells from oncology patients to BrHPP. It aims at identifying cancers and or situations in which a BrHPP treatment would be relevant and those for which it would be less or not beneficial. In brief, a small sample of blood is sufficient to prepare PBMCs and culture in the presence of BrHPP. A result of the level of in vitro amplification of gamma-delta cells by BrHPP can be obtained in about 8 days.
Upon reception of blood, 20 ml blood samples were treated by Ficoll gradient to isolate peripheral lymphocytes, which were then frozen. The lymphocytes were cultured in a 96-well plate (1 million cells/ml) for 8 days in the presence of BrHPP. The percentage of γ962 T cells were then determined by a phenotypic assay (flow cytometry).
In such small scale culture assay, a patient is considered to be responsive to an agonist following 8 days of in vitro stimulation according to two criteria: the percentage of γ962 T cells in culture as well as the rate of amplification of these cells. The amplification rate corresponds to the ratio of number of total γ962 T cells at the end of culture to the total γ962 T cells at the start of culture. The qualitative evaluation of these two criteria was divided into four levels of response, according to the Table 2.
A patient is considered sensitive to BrHPP if the sum of the values of the two criteria is ++ or +++. A classification of 0 or + is considered non-sensitive.

γδ T cells [2] = assay: BrHPP-induced amplification of γδ T cells in monkeys treated with imatinib mesylate; type: in vivo; settings: BrHPP iv plus IL-2 with oral daily imatinib mesylate 15 mg/kg versus BrHPP alone; days 6 and 20
γ9δ2 T cells = assay: Dose range activation of γδ T cells following iv injection of BrHPP (GLP pharmacology studies); type: in vivo, non-human primates
Vγ9Vδ2 T cells = assay: Phase I escalating dose clinical trial: amplification of Vγ9Vδ2 T cells by flow cytometry in chemotherapy-treated patients; type: in vivo, human; settings: after second administration (with IL-2)
Procedure: Blood samples (4 ml) were withdrawn into EDTA containing tubes. Tubes were shipped overnight at room temperature (RT) before flow cytometry analyses.
Peripheral lymphocytes were analyzed by flow cytometry on total blood, after triple staining with anti-Vdelta2FITC, anti-CD3PE and anti-CD25PC5 antibodies (Vdelta2-FITC : IMMU389 clone, Immunotech-Beckman-Coulter, Marseilles, France; CD3-PE : UCHTI clone, Immunotech-Beckman-Coulter; CD25PC5 : M-A251 clone, Becton Dickinson, Le Pont de Claix, France).
Briefly, 100 μl patient blood was incubated 15 min at RT with 10 μl anti-Vdelta2-FITC, 10 μl anti-CD3-PE and 10 μl anti-CD25PC5 antibodies. Antibodies were washed with 3 ml 1× PBS, centrifuged for 4 min at 1300 rpm at RT and supernatant was discarded. Red cells were lysed with the OptiLyse B reagent (Immunotech-Beckman-Coulter, Marseilles, France) according to the manufacturer's instructions. At the final step, stained white blood cells were recovered by centrifugation and resuspended in 300 μl 1× PBS+0.2% PFA. Flow cytometry analysis on viable cells was performed on a FacsSCAN apparatus (Becton Dickinson) with the FacsDiva software.
(§1) PHOSPHOST™ (Bromohydrin pyrophosphate, BrHPP) was evaluated in an escalating dose clinical trial in patients with advanced/metastatic solid tumors. The therapeutic regimen and pharmaco-toxicology of BrHPP in combination with low dose of IL-2 have previously been characterized in non human primates. The patients received at least 3 injections of BrHPP 3 weeks apart, concomitant with low dose of IL-2 (1 million IU/m^2/day). Pharmacological response was monitored all along the treatment. Based on the results of the phase I trial, a multicenter phase II study on metastatic RCC patients has been scheduled. The clinical drug product was a 200 mg/vial of lyophilized Phosphostim (expressed in mg equivalent of BrHPP anionic form.). The formulation of Phosphostim was reconstituted immediately prior to use with 2 ml of water for injections to make a 100 mg/ml solution. The reconstituted product was diluted in a total volume of 100 ml of ringer lactate buffer infusion vehicle. Phosphostim was administered intravenously over 1 hour.
All patient cohorts received repeated 3-week cycles of Phosphostim alone for the first cycle and Phosphostim in combination with IL-2 for the subsequent cycles. • first cycle: Phosphostim alone, • subsequent cycles: Phosphostim in combination with IL-2
Patients were sequentially allotted to cohorts of progressively higher dose levels of Phosphostim. […] The objective tumor response was assessed after 3 cycles (i.e., every 9 weeks). […]
Drug plasma levels were measured during the first and the second cycles in all patients. […] Biological effect was monitored throughout the trial and studied on PBMC and plasma. […]

[3] = test system: advanced/metastatic solid tumors; assay: Phase I clinical trial: progression free survival; type: in vivo, human
Procedure: as §1
The clinical trial was therefore a phase I, single arm, open-label, national, multi-center, dose-escalation trial in sequential cohorts of patients with advanced/metastatic solid tumors.
Patients were sequentially allotted to cohorts of progressively higher dose levels of Phosphostim. […] The objective tumor response was assessed after 3 cycles (i.e., every 9 weeks).

[4] = test system: advanced drug refractory ovarian cancer; settings: in vivo; cited from earlier work
[5] = test system: previously treated metastatic breast cancer; settings: in vivo; cited from earlier work
various lung cancers = settings: in vivo; cited from earlier work
[6] = test system: histone deacetylase (HDAC); settings: cited from earlier work
human γ9δ2 T cells = assay: Combination of BrHPP and tyrosine kinase inhibitors on amplification of Vd2/Vg9 T cells in NOD SCID mice; type: in vivo; settings: BrHPP 50 mg/kg i.p. day 0, IL-2 day 0 to 4, TKI from day 0 for 3 to 5 days; peritoneal lavage day 8
Procedure: Cell line: human PBMC whose γ9δ2 T cells percentage is higher than 0.5% and which has been previously tested for the “sensitivity test”. They were thawed one hour before injection and maintained for one hour in complete medium (RPMI 1640 supplemented with 2 mM L-glutamine, 1 mM Sodium Pyruvate (all from Gibco-BRL, Life Science, Invitrogen) and 10% heat inactivated Fetal Calf Serum (Fetal clone)) in incubator at 37° C.
• FITC anti human V82,Immunotech, ref 1464 • PerCpCy5.5 anti human CD3, Pharmingen, ref 552552 • APC anti human Vγ9 • APC Cy7 anti human CD45, Pharmingen, ref 348815 • PE anti human CD56, Pharmingen, ref 556647
Mice used included (a) NOD SCID female mice aged 8-10 weeks from Charles River Laboratories. Mice were fed and housed under sterilized conditions in Innate-Pharma's animal facility, and (b)NOD SCID female mice aged 10-12 weeks bred at Innate Pharma.
Each group contained 5 mice. Following transfer of human PBMC cells described above, the 4 groups received BrHPP (50 mg/kg, i.p.) on day 0 and IL-2 (2 M/m^2, s.c.) every day from day 0 to day 4. […] On day 8 mice were sacrificed, cells were collected by peritoneal lavage, and γ9δ2 T cell proliferation was assessed by flow cytometry.

[7] = phosphostim plus IL-2, iv injection

Cc1ccc(NC(=O)c2ccc(CN3CCN(C)CC3)cc2)cc1Nc1nccc(-c2cccnc2)n1 [Gleevec, imatinib mesylate, reference compound]
sensitivity of T cells from Gleevec-treated CML patients to γ9δ2 T cell agonists such as BrHPP (γδ T cells [1]; 8 days culture with BrHPP): remain sensitive | effect on γδ T cell proliferation (percentage of γ9δ2 T cells among total cells) (γδ T cells [2]): does not significantly impair

3-(bromomethyl)-3-butanol-1-yl-diphosphate [BrHPP]
γ9δ2 T cell levels return to basal level (γ9δ2 T cells; in most animals (except some treated with a high dose)): 14 days | EC50 in vivo (γ9δ2 T cells; [7]): about 60 mg/kg | dose at which a plateau seems to be reached (γ9δ2 T cells; [7]): 97 mg/kg | dose from which the effect is detected (γ9δ2 T cells; [7]): ≥ 2.4 mg/kg | amplification rate of Vγ9Vδ2 T cells (Vγ9Vδ2 T cells; Patient 1 (0035), colon cancer, 1500 mg/m2, within six months of Cetuximab/Irinotecan therapy): 11 × | amplification rate of Vγ9Vδ2 T cells (Vγ9Vδ2 T cells; Patient 2 (0039), colon cancer, 1500, Erbitux/Irinotecan ending within three months before): 6.4 × | amplification rate of Vγ9Vδ2 T cells (Vγ9Vδ2 T cells; Patient 3 (0018), metastatic renal cell carcinoma, 1800 mg/m^2, prior BAY 43-9006 and Avastin ending within a month before): 6.2 × | amplification rate of Vγ9Vδ2 T cells (Vγ9Vδ2 T cells; Patient 4 (0017), colon cancer, 1200 mg/m^2, Oxaliplatin/5FU/Elvorine/Vinflumine ending within three months before): 4.3 × | PFS (progression free survival) ([3]; Patient 3 (0018), metastatic renal cell carcinoma, two cycles, 1800 mg/m^2): 72 weeks | PFS ([3]; Patient 4 (0017), colon cancer, three cycles, 1200 mg/m^2): 39 weeks | non-sensitive patients (γδ T cells [1]; of 19 CML patients undergoing imitanib mesylate treatment): One | patients with values of either ++ or +++ (responsive to BrHPP induced amplification) (γδ T cells [1]; of 19 CML patients undergoing imitanib mesylate treatment, sum of the two criteria of Table 2): 18 patients

CC(=O)O[C@H]1C(=O)[C@@]2(C)[C@H]([C@H](OC(=O)c3ccccc3)[C@]3(O)C[C@H](OC(=O)[C@H](O)[C@@H](NC(=O)c4ccccc4)c4ccccc4)C(C)=C1C3(C)C)[C@]1(OC(C)=O)CO[C@@H]1C[C@@H]2O [taxol, Paclitaxel]
response rate [4]: 19-36% | response rate [5]: 27-62% | response rate (various lung cancers): 21-37%

CC(/C=C/C(=O)NO)=C\[C@@H](C)C(=O)c1ccc(N(C)C)cc1 [trichostatin A]
concentration at which HDAC is inhibited [6]: nanomolar concentrations

CNC(=O)c1cc(Oc2ccc(NC(=O)Nc3ccc(Cl)c(C(F)(F)F)c3)cc2)ccn1 [Sorafenib, sorafenib]
effect on γδ T cell proliferation (percentage of γ9δ2 T cells among total cells) (human γ9δ2 T cells): does not impair

O=C(CCCCC[C@@H]1NC(=O)[C@H]2CCCCN2C(=O)[C@H](Cc2ccccc2)NC(=O)[C@H](Cc2ccccc2)NC1=O)C1CO1 (some centres unmarked) [trapoxin (TPX), trapoxin] (HELM PEPTIDE1{F.F.[O=C([C@H]1CCCCN1[*:1])[*:2]].[O=C(CCCCC[C@H](N[*:1])C(=O)[*:2])C1CO1]}$PEPTIDE1,PEPTIDE1,1:R1-4:R2$$$V2.0)
concentration at which HDAC is inhibited [6]: nanomolar concentrations

— patent US20100029674A1, “Methods of Using Phosphoantigen for the Treatment of Cancer” (INNATE PHARMA, S.A., priority 2007, published 2010)
